Measurements from patent publication US10730850B2, “Pyridinylmethyl carbamimidoylcarbamate derivatives and their use as AOC3 inhibitors” (Boehringer Ingelheim International GmbH, priority 2016, dated 2020).
Like-named read-outs stand apart in the source and are kept apart here.

How the values were obtained:
hepatocytes = assay: Metabolic stability assay in hepatocyte suspension; assay type: in vitro ADME; details: 1 μM test compound
Method: The metabolic degradation of the test compound is assayed in a hepatocyte suspension. Hepatocytes (typically cryopreserved) are incubated in an appropriate buffer system (e.g. Dulbecco's modified eagle medium plus 3.5 μg glucagon/500 mL, 2.5 mg insulin/500 mL and 3.75 mg/500 mL hydrocortison) containing 5% species serum. Following a (typically) 30 min preincubation in an incubator (37° C., 10% CO2) 5 μl of test compound solution (80 μM; from 2 mM in DMSO stock solution diluted 1:25 with medium) are added into 395 μl hepatocyte suspension (cell density in the range 0.25-5 Mio cells/mL, typically 1 Mio cells/mL; final concentration of test compound 1 μM, final DMSO concentration 0.05%). The cells are incubated for six hours (incubator, orbital shaker) and samples (25 μl) are taken at 0, 0.5, 1, 2, 4 and 6 hours. Samples are transferred into acetonitrile and pelleted by centrifugation (5 min). The supernatant is transferred to a new 96-deepwell plate, evaporated under nitrogen and resuspended. Decline of parent compound is analyzed by HPLC-MS/MS
CLint is calculated as follows CL_INTRINSIC=Dose/AUC=(C0/CD)/(AUD+clast/k)×1000/60. C0: initial concentration in the incubation [μM], CD: cell density of vital cells [10e6 cells/mL], AUD: area under the data [μM×h], clast: concentration of last data point [μM], k: slope of the regression line for parent decline [h-1].
The calculated in vitro hepatic intrinsic clearance can be scaled up to the intrinsic in vivo hepatic Clearance and used to predict hepatic in vivo blood clearance (CL) by the use of a liver model (well stirred model). CL_INTRINSIC_INVIVO [ml/min/kg]=(CL_INTRINSIC [μL/min/10e6 cells]×hepatocellularity [10e6 cells/g liver]×liver factor [g/kg bodyweight])/1000 CL [ml/min/kg]=CL_INTRINSIC_INVIVO [ml/min/kg]×hepatic blood flow [ml/min/kg]/(CL_INTRINSIC_INVIVO [ml/min/kg]+hepatic blood flow [ml/min/kg])

AOC3 = AOC3 (Homo sapiens (Human), UniProt Q16853); assay: MAO-Glo AOC3 assay (recombinant CHO cells overexpressing AOC3); assay type: biochemical
Text: The MAO-Glo™ Assay (commercial available from PROMEGA, # V1402) provides a sensitive method for the measurement of monoamine oxidase (MAO) activity (Valley, M. P. et al., 2006, Anal. Biochem. 359: 238-246) from a variety of tissues, biofluids or recombinant expressed or purified enzymes. As substrate a derivate of the beetle luciferin ((4S)-4,5-dihydro-2-(6-hydroxybenzothiazolyl)-4-thiazole-carboxylic acid) is used, which is oxidized at a primary amine moiety. After a spontaneous elimination and a catalyzed esterase reaction, the turnover of the luciferine by the luciferase is recorded as a signal of AOC3 activity.
An aliquot of 3 μL of the compound dilution is added to a 384 well plate (Optiplate, PS, flat bottom, white, PERKIN ELMER, #6007290) with a final DMSO concentration of 6.6%. Recombinant CHO cells, overexpressing the human (1500 cells/well), mouse (1000 cells/well) or rat (500 cells/well) AOC3 enzyme are diluted in reaction buffer and added in a volume of 15 μL to the wells. After incubation for 20 minutes at 37° C., 2 μL of MAO substrate (dissolved in DMSO at 16 mM, adjusted to assay concentration in reaction buffer to a final assay concentration of 20 μM) is added and further incubated for 60 minutes at 37° C. The turnover of the substrate is determined by the addition of 20 μL of the detection-mix which was generated by the addition of reconstitution buffer with esterase (PROMEGA, # V1402) to the luciferine detection reagent (PROMEGA, # V1402). After an incubation period of 20 minutes, the luminescent signal is measured with Envision 2104 Multilabel Reader (PERKIN ELMER).
In the following table the activity expressed as IC50 (nM) of compounds according to the invention is presented wherein the IC50 values are determined in the MAO-Glo™ AOC3 assay as described hereinbefore. The term “Example” refers to the example numbers according to the following experimental section.

[1] = Table 3, comparative compounds of EP 2 695 881
[2] = Table 2, comparative compounds of EP 2 695 881, read-out: IC50

Sequence of AOC3 (Q16853 whole entry): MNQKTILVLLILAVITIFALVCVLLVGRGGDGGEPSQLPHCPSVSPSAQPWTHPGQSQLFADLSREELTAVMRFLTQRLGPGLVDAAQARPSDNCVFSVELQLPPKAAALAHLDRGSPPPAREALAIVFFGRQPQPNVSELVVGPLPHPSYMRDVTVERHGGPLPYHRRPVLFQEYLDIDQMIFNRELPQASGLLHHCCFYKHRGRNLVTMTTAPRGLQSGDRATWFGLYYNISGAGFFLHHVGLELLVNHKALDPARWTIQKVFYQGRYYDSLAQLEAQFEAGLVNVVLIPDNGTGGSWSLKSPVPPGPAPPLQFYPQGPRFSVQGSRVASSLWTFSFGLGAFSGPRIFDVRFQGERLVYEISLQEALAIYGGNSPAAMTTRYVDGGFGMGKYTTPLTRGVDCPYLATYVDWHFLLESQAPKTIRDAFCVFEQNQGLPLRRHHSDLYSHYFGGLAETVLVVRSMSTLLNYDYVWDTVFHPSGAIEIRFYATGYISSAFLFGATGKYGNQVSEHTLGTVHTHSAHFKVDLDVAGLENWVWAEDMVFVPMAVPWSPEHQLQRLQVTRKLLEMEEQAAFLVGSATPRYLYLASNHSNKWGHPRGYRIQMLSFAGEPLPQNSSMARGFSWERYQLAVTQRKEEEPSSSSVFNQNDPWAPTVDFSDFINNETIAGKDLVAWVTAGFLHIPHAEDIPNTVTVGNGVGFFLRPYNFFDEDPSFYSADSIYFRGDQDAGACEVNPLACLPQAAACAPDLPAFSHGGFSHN

COc1ccc(N2CCN(c3cccc(COC(=O)NC(=N)N)c3F)CC2)cc1 [57 (227), reference compound]
QH (hepatocytes; [1]): 20%
IC50 (AOC3; [2]): 3.9 nM

COc1ncc(N2CCN(c3cccc(COC(=O)NC(=N)N)c3F)CC2)cn1 [126 (235), reference compound]
QH (hepatocytes; [1]): 11%
IC50 (AOC3; [2]): 3.9 nM

N=C(N)NC(=O)OCc1ccnc(N2CCC(c3ccncc3)CC2)c1F [Example 1.010]
QH (hepatocytes; Table 4): 16%
IC50 (AOC3; Table 1, read-out: AOC3 IC50): 3 nM

N=C(N)NC(=O)OCc1ccnc(N2CCN(c3ccncc3)CC2)c1F [Example 1.011]
QH (hepatocytes; Table 4): <4%
IC50 (AOC3; Table 1, read-out: AOC3 IC50): 3 nM

CC(=O)N1CCC(C2CN(c3cccc(COC(=O)NC(=N)N)n3)C2)CC1 [Example 1.016]
QH (hepatocytes; Table 4): 6%
IC50 (AOC3; Table 1, read-out: AOC3 IC50): 10 nM

N=C(N)NC(=O)OCc1ccnc(N2CCN(c3cncnc3)CC2)c1F [Example 1.017]
QH (hepatocytes; Table 4): 6%
IC50 (AOC3; Table 1, read-out: AOC3 IC50): 3 nM

N=C(N)NC(=O)OCc1ccnc(N2CCC(C3CCOCC3)CC2)c1F [Example 1.023]
QH (hepatocytes; Table 4): 14%
IC50 (AOC3; Table 1, read-out: AOC3 IC50): 8 nM

N#Cc1ccc(N2CCN(c3nccc(COC(=O)NC(=N)N)n3)CC2)cc1 [Example 1.027]
QH (hepatocytes; Table 4): 9%
IC50 (AOC3; Table 1, read-out: AOC3 IC50): 2 nM

Cc1cccc(N2CCN(c3nccc(COC(=O)NC(=N)N)c3F)CC2)c1 [Example 1.031]
QH (hepatocytes; Table 4): 23%
IC50 (AOC3; Table 1, read-out: AOC3 IC50): 9 nM

N=C(N)NC(=O)OCc1ccnc(N2CCN(c3ccccc3)C(=O)C2)c1F [Example 1.033]
QH (hepatocytes; Table 4): 4%
IC50 (AOC3; Table 1, read-out: AOC3 IC50): 6 nM

COc1ncc(N2CCN(c3cccc(COC(=O)NC(=N)N)n3)CC2)cn1 [Example 1.036]
QH (hepatocytes; Table 4): 16%
IC50 (AOC3; Table 1, read-out: AOC3 IC50): 7 nM

N=C(N)NC(=O)OCc1ccnc(N2CC=C(c3ccc(F)cc3)CC2)c1F [Example 1.037]
QH (hepatocytes; Table 4): 20%
IC50 (AOC3; Table 1, read-out: AOC3 IC50): 9 nM

Cc1cc(N2CCN(c3nccc(COC(=O)NC(=N)N)c3F)CC2)ccn1 [Example 1.039]
QH (hepatocytes; Table 4): <4%
IC50 (AOC3; Table 1, read-out: AOC3 IC50): 2 nM

COc1ncc(N2CCN(c3nccc(COC(=O)NC(=N)N)n3)CC2)cn1 [Example 1.040]
QH (hepatocytes; Table 4): 7%
IC50 (AOC3; Table 1, read-out: AOC3 IC50): 7 nM

N=C(N)NC(=O)OCc1ccnc(N2CCC(c3ccc(F)cc3)CC2)c1F [Example 1.041]
QH (hepatocytes; Table 4): 12%
IC50 (AOC3; Table 1, read-out: AOC3 IC50): 9 nM

N=C(N)NC(=O)OCc1ccnc(N2CCN(c3cccc(F)c3)CC2)c1F [Example 1.044]
QH (hepatocytes; Table 4): 56%
IC50 (AOC3; Table 1, read-out: AOC3 IC50): 9 nM

CC(=O)N1CCC(C2CN(c3nccc(COC(=O)NC(=N)N)c3F)C2)CC1 [Example 1.047]
QH (hepatocytes; Table 4): <4%
IC50 (AOC3; Table 1, read-out: AOC3 IC50): 8 nM

N#CC1(c2ccccc2)CCN(c2nccc(COC(=O)NC(=N)N)c2F)CC1 [Example 1.050]
QH (hepatocytes; Table 4): 10%
IC50 (AOC3; Table 1, read-out: AOC3 IC50): 2 nM

N#Cc1cccc(C2CCN(c3nccc(COC(=O)NC(=N)N)c3F)CC2)c1 [Example 1.051]
QH (hepatocytes; Table 4): 20%
IC50 (AOC3; Table 1, read-out: AOC3 IC50): 2 nM

N#Cc1cccc(N2CCN(c3nccc(COC(=O)NC(=N)N)c3F)CC2)c1 [Example 1.054]
QH (hepatocytes; Table 4): 14%
IC50 (AOC3; Table 1, read-out: AOC3 IC50): 1 nM

N#Cc1ccc(N2CCN(c3nccc(COC(=O)NC(=N)N)c3F)CC2)cc1 [Example 1.055]
QH (hepatocytes; Table 4): 16%
IC50 (AOC3; Table 1, read-out: AOC3 IC50): 2 nM

N#Cc1ccc(N2CCN(c3nccc(COC(=O)NC(=N)N)c3F)CC2)nc1 [Example 1.056]
QH (hepatocytes; Table 4): 12%
IC50 (AOC3; Table 1, read-out: AOC3 IC50): 4 nM

COc1cccc(C2=CCN(c3nccc(COC(=O)NC(=N)N)c3F)CC2)c1 [Example 1.058]
QH (hepatocytes; Table 4): 18%
IC50 (AOC3; Table 1, read-out: AOC3 IC50): 4 nM

Cc1cc(C)cc(N2CCN(c3nccc(COC(=O)NC(=N)N)c3F)CC2)c1 [Example 1.061]
QH (hepatocytes; Table 4): 13%
IC50 (AOC3; Table 1, read-out: AOC3 IC50): 8 nM

COc1cnc(C2=CCN(c3nccc(COC(=O)NC(=N)N)c3F)CC2)nc1 [Example 1.064]
QH (hepatocytes; Table 4): 14%
IC50 (AOC3; Table 1, read-out: AOC3 IC50): 6 nM

COc1ccc(C2CCN(c3nccc(COC(=O)NC(=N)N)c3F)CC2)cc1 [Example 1.065]
QH (hepatocytes; Table 4): 40%
IC50 (AOC3; Table 1, read-out: AOC3 IC50): 5 nM

COc1ccc(N2CCN(c3nccc(COC(=O)NC(=N)N)c3F)CC2)cc1 [Example 1.067]
QH (hepatocytes; Table 3, compounds of the present invention): 10%
QH (hepatocytes; Table 4): 23%
IC50 (AOC3; Table 1, read-out: AOC3 IC50): 5 nM
IC50 (AOC3; Table 2, compounds of the present invention, read-out: IC50): 4.6 nM

COc1cccc(N2CCN(c3nccc(COC(=O)NC(=N)N)c3F)CC2)c1 [Example 1.068]
QH (hepatocytes; Table 4): 23%
IC50 (AOC3; Table 1, read-out: AOC3 IC50): 7 nM

N=C(N)NC(=O)OCc1ccnc(N2CCC(c3ccc(Cl)cc3)CC2)c1F [Example 1.074]
QH (hepatocytes; Table 4): 24%
IC50 (AOC3; Table 1, read-out: AOC3 IC50): 7 nM

N=C(N)NC(=O)OCc1ccnc(N2CCN(c3ccc(Cl)cc3)CC2)c1F [Example 1.077]
QH (hepatocytes; Table 4): 30%
IC50 (AOC3; Table 1, read-out: AOC3 IC50): 7 nM

N=C(N)NC(=O)OCc1ccnc(N2CCN(c3ccc(Cl)cn3)CC2)c1F [Example 1.078]
QH (hepatocytes; Table 4): 14%
IC50 (AOC3; Table 1, read-out: AOC3 IC50): 9 nM

N#Cc1ccc(N2CCN(c3nccc(COC(=O)NC(=N)N)c3F)CC2)c(F)c1 [Example 1.083]
QH (hepatocytes; Table 4): 11%
IC50 (AOC3; Table 1, read-out: AOC3 IC50): 4 nM

CC(=O)c1ccc(N2CCN(c3nccc(COC(=O)NC(=N)N)c3F)CC2)nc1 [Example 1.085]
QH (hepatocytes; Table 4): 85%
IC50 (AOC3; Table 1, read-out: AOC3 IC50): 4 nM

N=C(N)NC(=O)OCc1ccnc(N2CCN(c3ccc(C(N)=O)cn3)CC2)c1F [Example 1.086]
QH (hepatocytes; Table 4): 11%
IC50 (AOC3; Table 1, read-out: AOC3 IC50): 7 nM

N=C(N)NC(=O)OCc1ccnc(N2CCC(N3Cc4ccccc4C3=O)CC2)c1F [Example 1.089]
QH (hepatocytes; Table 4): 8%
IC50 (AOC3; Table 1, read-out: AOC3 IC50): 4 nM

CNC(=O)c1ccc(N2CCN(c3nccc(COC(=O)NC(=N)N)c3F)CC2)nc1 [Example 1.091]
QH (hepatocytes; Table 4): 7%
IC50 (AOC3; Table 1, read-out: AOC3 IC50): 7 nM

COC(=O)c1ccc(N2CCN(c3nccc(COC(=O)NC(=N)N)c3F)CC2)nc1 [Example 1.092]
QH (hepatocytes; Table 4): 92%
IC50 (AOC3; Table 1, read-out: AOC3 IC50): 9 nM

COC(=O)N1CCC(C2CCN(c3nccc(COC(=O)NC(=N)N)c3F)CC2)CC1 [Example 1.095]
QH (hepatocytes; Table 4): 15%
IC50 (AOC3; Table 1, read-out: AOC3 IC50): 3 nM

N=C(N)NC(=O)OCc1ccnc(N2CCN(c3ccc(C(F)(F)F)nn3)CC2)c1F [Example 1.099]
QH (hepatocytes; Table 4): 9%
IC50 (AOC3; Table 1, read-out: AOC3 IC50): 5 nM

CN(C)C(=O)c1ccc(N2CCN(c3nccc(COC(=O)NC(=N)N)c3F)CC2)cc1 [Example 1.100]
QH (hepatocytes; Table 4): 9%
IC50 (AOC3; Table 1, read-out: AOC3 IC50): 5 nM

CN(C)C(=O)c1ccc(N2CCN(c3nccc(COC(=O)NC(=N)N)c3F)CC2)nc1 [Example 1.101]
QH (hepatocytes; Table 4): <4%
IC50 (AOC3; Table 1, read-out: AOC3 IC50): 7 nM

CS(=O)(=O)c1ccc(N2CCN(c3nccc(COC(=O)NC(=N)N)c3F)CC2)nc1 [Example 1.103]
QH (hepatocytes; Table 4): <4%
IC50 (AOC3; Table 1, read-out: AOC3 IC50): 8 nM

N=C(N)NC(=O)OCc1ccnc(N2CCC(C3CCN(S(N)(=O)=O)CC3)CC2)c1F [Example 1.104]
QH (hepatocytes; Table 4): 5%
IC50 (AOC3; Table 1, read-out: AOC3 IC50): 9 nM

CS(=O)(=O)c1ccc(N2CCN(c3nccc(COC(=O)NC(=N)N)c3F)CC2)c(F)c1 [Example 1.106]
QH (hepatocytes; Table 4): 8%
IC50 (AOC3; Table 1, read-out: AOC3 IC50): 6 nM

N=C(N)NC(=O)OCc1cccc(N2CCN(c3ccc(C(N)=O)cc3)CC2)c1F [reference compound]
QH (hepatocytes; [1]): 47%
IC50 (AOC3; [2]): 2.5 nM
